Source: patent EP0917878A1, “REMEDIES FOR HEPATITIS” (TORAY INDUSTRIES, INC., priority 1997, dated 1998)

Target: T1, α4·IgG heavy chain-β1·IgG heavy chain chimeric protein heterodimer complex (chimeric protein of VLA-4 and IgG heavy chain) (Homo sapiens, UniProt P05556+P13612)
T1 construct: a chimeric molecule being composed with the extracellular region of integrin α4 and an immunoglobulin heavy chain; a chimeric molecule being composed with the extracellular region of integrin β1 and an immunoglobulin heavy chain; made in house; unpurified culture supernatant used in the assay
Test: binding of α4·IgG heavy chain-β1·IgG heavy chain chimeric protein heterodimer complex to solid phase CS-1-IgG (absorbance at 490 nm)
Settings: for inhibition at 50 µg/mL: Concentration 50 µg/ml, read-out: Inhibition rate (%)
Protocol: At first, according to the said report (Humphries, M. J. et al., J. Biol. Chem., 262, 6886-6892 (1987)), the peptide fragment of sequence No. 13 (CS-1 peptide) was bound to rabbit IgG (Sigma), to prepare CS-1-IgG. The CS-1-IgG was diluted by PBS(-), and supplied in a 96-well immunoplate (NUNC) by 100 µl/well, and allowed to stand at 4°C for 16 hours, to be formed as a solid phase on the plate.
After completion of standing, the surface of the plate was washed with PBS(-) twice and treated with 1% BSA(heat-denatured at 80°C for 10 minutes)-PBS solution (300 µl/well) at 4°C for 3 hours to block the nonspecific reaction. Then, the solid phase CS-1-IgG and the CHO culture supernatant (100 µl) containing α4·IgG heavy chain-β1·IgG heavy chain chimeric protein heterodimer complex were reacted with each other at 30°C for 3 hours. The non-bound α4·IgG heavy chain-β1·IgG heavy chain chimeric protein heterodimer complex was removed by washing with 0.1% BSA-containing TBS buffer (150 mM NaCl, 25 mM Tris-HCl, 1 mM MnCl2, pH 7.4) twice, and the bound α4·IgG heavy chain-β1·IgG heavy chain chimeric protein heterodimer complex was detected by biotin labeled anti-human IgG antibody (Vector) as the primary antibody and avidin labeled horseradish peroxidase (Sigma) used as the secondary anti body. The surface of the plate was washed with the TBS buffer. Orthophenylenediamine was added as a substrate to it for color development, and the absorbance at 490 nm were measured.
The all peptides were synthesized by a peptide synthesizer. The peptide and 100 µl of CHO cultured supernatant solution containing α4·IgG heavy chain-β1·IgG heavy chain chimeric protein heterodimer complex were mixed at room temperature for 20 minutes, and the binding to CS-1-IgG was determined according to the method in Example 4.
Reagents and the compounds stated in literature were picked up at random, adjusted to a final concentration of 50 µg/ml, and added to the binding assay system of Example 4. Compounds showing inhibitory activity were obtained. […]

T1 sequence (P13612 35-977 limits assumed, change not shown): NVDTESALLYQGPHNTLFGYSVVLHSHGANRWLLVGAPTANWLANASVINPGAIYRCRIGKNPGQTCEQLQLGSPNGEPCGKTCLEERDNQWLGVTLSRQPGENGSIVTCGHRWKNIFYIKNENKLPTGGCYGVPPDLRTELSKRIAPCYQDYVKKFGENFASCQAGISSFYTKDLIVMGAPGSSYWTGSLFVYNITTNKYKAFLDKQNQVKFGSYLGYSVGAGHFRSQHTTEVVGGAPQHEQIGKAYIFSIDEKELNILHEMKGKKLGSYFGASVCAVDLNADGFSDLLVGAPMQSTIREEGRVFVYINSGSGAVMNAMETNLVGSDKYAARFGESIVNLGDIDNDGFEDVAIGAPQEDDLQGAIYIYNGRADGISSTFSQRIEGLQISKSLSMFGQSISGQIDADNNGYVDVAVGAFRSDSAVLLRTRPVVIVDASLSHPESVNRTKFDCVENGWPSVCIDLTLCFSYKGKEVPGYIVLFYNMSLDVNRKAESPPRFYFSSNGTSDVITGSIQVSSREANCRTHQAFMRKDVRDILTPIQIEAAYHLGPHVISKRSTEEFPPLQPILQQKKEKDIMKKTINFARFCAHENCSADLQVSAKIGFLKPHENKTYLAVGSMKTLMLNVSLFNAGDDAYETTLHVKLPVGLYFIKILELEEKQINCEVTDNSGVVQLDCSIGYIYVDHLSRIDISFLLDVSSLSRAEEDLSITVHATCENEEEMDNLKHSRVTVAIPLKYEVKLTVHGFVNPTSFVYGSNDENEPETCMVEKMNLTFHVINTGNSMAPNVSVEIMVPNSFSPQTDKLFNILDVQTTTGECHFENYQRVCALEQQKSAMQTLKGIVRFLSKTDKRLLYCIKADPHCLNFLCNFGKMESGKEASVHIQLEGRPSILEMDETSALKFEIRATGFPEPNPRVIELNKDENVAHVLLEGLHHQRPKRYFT
T1 sequence (P05556 21-728 limits assumed, change not shown): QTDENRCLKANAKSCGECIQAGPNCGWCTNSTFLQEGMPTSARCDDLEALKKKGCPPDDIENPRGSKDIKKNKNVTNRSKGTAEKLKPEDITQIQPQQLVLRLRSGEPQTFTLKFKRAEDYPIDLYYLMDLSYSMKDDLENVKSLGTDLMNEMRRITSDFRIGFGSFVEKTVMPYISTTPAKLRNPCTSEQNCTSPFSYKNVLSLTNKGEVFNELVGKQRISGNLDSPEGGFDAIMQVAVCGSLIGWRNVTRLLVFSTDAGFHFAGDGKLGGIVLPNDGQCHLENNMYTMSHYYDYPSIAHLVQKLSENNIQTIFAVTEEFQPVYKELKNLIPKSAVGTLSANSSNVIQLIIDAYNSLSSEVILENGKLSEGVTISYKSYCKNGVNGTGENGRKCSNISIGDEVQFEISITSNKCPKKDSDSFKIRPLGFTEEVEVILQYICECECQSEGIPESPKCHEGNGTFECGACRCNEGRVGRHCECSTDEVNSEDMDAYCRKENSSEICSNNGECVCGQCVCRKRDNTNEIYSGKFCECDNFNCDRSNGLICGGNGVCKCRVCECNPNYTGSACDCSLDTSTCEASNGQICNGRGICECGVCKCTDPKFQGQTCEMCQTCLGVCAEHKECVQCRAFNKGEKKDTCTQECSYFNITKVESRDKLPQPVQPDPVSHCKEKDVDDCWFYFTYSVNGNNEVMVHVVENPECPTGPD
T1 sequence (P01857 99-330 partner limits assumed): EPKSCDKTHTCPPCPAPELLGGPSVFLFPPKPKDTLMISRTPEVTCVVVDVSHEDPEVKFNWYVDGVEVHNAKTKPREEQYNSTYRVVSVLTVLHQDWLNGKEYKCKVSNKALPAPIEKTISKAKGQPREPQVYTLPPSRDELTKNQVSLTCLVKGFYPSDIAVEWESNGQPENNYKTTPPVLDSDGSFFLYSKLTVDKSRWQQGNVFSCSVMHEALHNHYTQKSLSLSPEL

inhibition of binding to CS-1 peptide (5 mM, Fig. 1)	inhibition at 50 µg/mL	Compound
almost perfectly inhibited	–	O=C(O)CN(CCN(CC(=O)O)CC(=O)O)CC(=O)O [EDTA]
–	39.5%	C[C@H](CCC(=O)O)[C@H]1CC[C@H]2[C@@H]3C(=O)C[C@@H]4CC(=O)CC[C@]4(C)[C@H]3CC(=O)[C@]12C [Dehydrocholic acid]
–	87.5%	O=c1ccc2ccc(O)cc2o1 [7-Hydroxycoumarin]
